Assay results from ChEMBL document CHEMBL2074178, “Passive permeability and P-glycoprotein-mediated efflux differentiate central nervous system (CNS) and non-CNS marketed drugs” (J Pharmacol Exp Ther, 2002).

Columns and labels:
[1] = target: T1, ATP-dependent translocase ABCB1 (Homo sapiens, UniProt P08183); experiment: TP_TRANSPORTER: increase in Calcein-AM intracellular accumulation (Calcein-AM: ? uM, Sumatriptan: 100 uM) in MDR1-expressing MDCKII cells; type: functional, cell-based; conditions: dog, mdck-ii
T1 sequence (P08183 whole entry): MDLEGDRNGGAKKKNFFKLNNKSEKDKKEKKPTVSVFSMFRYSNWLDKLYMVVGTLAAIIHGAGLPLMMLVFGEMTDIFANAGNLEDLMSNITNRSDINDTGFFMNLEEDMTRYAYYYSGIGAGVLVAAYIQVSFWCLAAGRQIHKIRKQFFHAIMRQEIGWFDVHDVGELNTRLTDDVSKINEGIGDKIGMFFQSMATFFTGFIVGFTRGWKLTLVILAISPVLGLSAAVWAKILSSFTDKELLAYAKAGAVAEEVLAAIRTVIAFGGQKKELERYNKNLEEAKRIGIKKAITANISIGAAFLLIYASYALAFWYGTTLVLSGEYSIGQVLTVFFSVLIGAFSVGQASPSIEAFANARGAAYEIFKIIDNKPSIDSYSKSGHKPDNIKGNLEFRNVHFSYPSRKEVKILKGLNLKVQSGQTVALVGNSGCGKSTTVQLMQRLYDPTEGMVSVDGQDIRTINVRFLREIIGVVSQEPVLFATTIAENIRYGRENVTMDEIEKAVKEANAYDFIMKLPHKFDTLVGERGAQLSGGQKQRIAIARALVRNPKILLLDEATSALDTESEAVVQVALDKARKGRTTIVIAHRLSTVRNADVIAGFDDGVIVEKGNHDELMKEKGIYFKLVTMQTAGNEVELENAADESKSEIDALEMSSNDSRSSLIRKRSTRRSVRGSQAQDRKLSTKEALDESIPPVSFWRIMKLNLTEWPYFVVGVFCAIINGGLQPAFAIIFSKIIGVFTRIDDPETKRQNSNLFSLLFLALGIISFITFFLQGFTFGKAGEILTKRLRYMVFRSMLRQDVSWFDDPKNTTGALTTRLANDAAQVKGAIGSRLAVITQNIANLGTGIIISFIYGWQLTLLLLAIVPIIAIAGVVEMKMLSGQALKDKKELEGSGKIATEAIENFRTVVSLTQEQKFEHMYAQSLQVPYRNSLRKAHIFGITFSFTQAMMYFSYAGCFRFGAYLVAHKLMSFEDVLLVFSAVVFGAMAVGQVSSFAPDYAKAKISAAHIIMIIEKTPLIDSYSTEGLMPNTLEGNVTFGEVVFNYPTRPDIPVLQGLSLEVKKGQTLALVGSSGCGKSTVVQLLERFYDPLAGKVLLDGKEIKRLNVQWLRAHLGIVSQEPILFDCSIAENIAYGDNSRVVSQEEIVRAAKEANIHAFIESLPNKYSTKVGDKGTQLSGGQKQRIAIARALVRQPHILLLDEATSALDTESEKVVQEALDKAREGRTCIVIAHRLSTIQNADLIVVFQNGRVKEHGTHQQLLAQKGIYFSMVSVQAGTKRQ

[2] = target: T1, ATP-dependent translocase ABCB1; experiment: TP_TRANSPORTER: transepithelial transport (basal to apical) in MDR1-expressing MDCKII cells; type: functional, cell-based; conditions: dog, mdck-ii
[3] = target: T2, MDR1 (P-glycoprotein, ABCB1) (Homo sapiens, UniProt P08183); experiment: TP_TRANSPORTER: increase in Calcein-AM intracellular accumulation (Calcein-AM: ? uM, Amitriptyline: 100 uM) in MDR1-expressing MDCKII cells; type: functional, cell-based, MDCK-II; conditions: dog, probe Calcein-AM
T2 sequence (P08183 whole entry): as above

[4] = target: T1, ATP-dependent translocase ABCB1; experiment: TP_TRANSPORTER: increase in Calcein-AM intracellular accumulation (Calcein-AM: ? uM, Biperiden: 100 uM) in MDR1-expressing MDCKII cells; type: functional, cell-based; conditions: dog, mdck-ii
[5] = target: T2, MDR1 (P-glycoprotein, ABCB1); experiment: TP_TRANSPORTER: increase in Calcein-AM intracellular accumulation (Calcein-AM: ? uM, Buspirone: 100 uM) in MDR1-expressing MDCKII cells; type: functional, cell-based, MDCK-II; conditions: dog, probe Calcein-AM
[6] = target: T1, ATP-dependent translocase ABCB1; experiment: TP_TRANSPORTER: increase in Calcein-AM intracellular accumulation (Calcein-AM: ? uM, Carbamazepine: 100 uM) in MDR1-expressing MDCKII cells; type: functional, cell-based; conditions: dog, mdck-ii
[7] = target: T2, MDR1 (P-glycoprotein, ABCB1); experiment: TP_TRANSPORTER: increase in Calcein-AM intracellular accumulation (Calcein-AM: ? uM, Chlorprothixene: 100 uM) in MDR1-expressing MDCKII cells; type: functional, cell-based, MDCK-II; conditions: dog, probe Calcein-AM
[8] = target: T2, MDR1 (P-glycoprotein, ABCB1); experiment: TP_TRANSPORTER: increase in Calcein-AM intracellular accumulation (Calcein-AM: ? uM, Clomipramine: 100 uM) in MDR1-expressing MDCKII cells; type: functional, cell-based, MDCK-II; conditions: dog, probe Calcein-AM
[9] = target: T2, MDR1 (P-glycoprotein, ABCB1); experiment: TP_TRANSPORTER: increase in Calcein-AM intracellular accumulation (Calcein-AM: ? uM, Desipramine: 100 uM) in MDR1-expressing MDCKII cells; type: functional, cell-based, MDCK-II; conditions: dog, probe Calcein-AM
[10] = target: T2, MDR1 (P-glycoprotein, ABCB1); experiment: TP_TRANSPORTER: increase in Calcein-AM intracellular accumulation (Calcein-AM: ? uM, Doxepin: 100 uM) in MDR1-expressing MDCKII cells; type: functional, cell-based, MDCK-II; conditions: dog, probe Calcein-AM
[11] = target: T1, ATP-dependent translocase ABCB1; experiment: TP_TRANSPORTER: increase in Calcein-AM intracellular accumulation (Calcein-AM: ? uM, Flumazenil: 100 uM) in MDR1-expressing MDCKII cells; type: functional, cell-based; conditions: dog, mdck-ii
[12] = target: T2, MDR1 (P-glycoprotein, ABCB1); experiment: TP_TRANSPORTER: increase in Calcein-AM intracellular accumulation (Calcein-AM: ? uM, […]: 100 uM) in MDR1-expressing MDCKII cells; type: functional, cell-based, MDCK-II; conditions: dog, probe Calcein-AM
[13] = target: T2, MDR1 (P-glycoprotein, ABCB1); experiment: TP_TRANSPORTER: increase in Calcein-AM intracellular accumulation (Calcein-AM: ? uM, Fluvoxamine: 100 uM) in MDR1-expressing MDCKII cells; type: functional, cell-based, MDCK-II; conditions: dog, probe Calcein-AM
[14] = target: T2, MDR1 (P-glycoprotein, ABCB1); experiment: TP_TRANSPORTER: increase in Calcein-AM intracellular accumulation (Calcein-AM: ? uM, Haloperidol: 100 uM) in MDR1-expressing MDCKII cells; type: functional, cell-based, MDCK-II; conditions: dog, probe Calcein-AM
[15] = target: T1, ATP-dependent translocase ABCB1; experiment: TP_TRANSPORTER: increase in Calcein-AM intracellular accumulation (Calcein-AM: ? uM, Imipramine: 100 uM) in MDR1-expressing MDCKII cells; type: functional, cell-based; conditions: dog, mdck-ii
[16] = target: T1, ATP-dependent translocase ABCB1; experiment: TP_TRANSPORTER: increase in Calcein-AM intracellular accumulation (Calcein-AM: ? uM, Ketamine: 100 uM) in MDR1-expressing MDCKII cells; type: functional, cell-based; conditions: dog, mdck-ii
[17] = target: T2, MDR1 (P-glycoprotein, ABCB1); experiment: TP_TRANSPORTER: increase in Calcein-AM intracellular accumulation (Calcein-AM: ? uM, Maprotiline: 100 uM) in MDR1-expressing MDCKII cells; conditions: dog, probe Calcein-AM
[18] = target: T1, ATP-dependent translocase ABCB1; experiment: TP_TRANSPORTER: increase in Calcein-AM intracellular accumulation (Calcein-AM: ? uM, Meprobamate: 100 uM) in MDR1-expressing MDCKII cells; type: functional, cell-based; conditions: dog, mdck-ii
[19] = target: T2, MDR1 (P-glycoprotein, ABCB1); experiment: TP_TRANSPORTER: increase in Calcein-AM intracellular accumulation (Calcein-AM: ? uM, Metergoline: 100 uM) in MDR1-expressing MDCKII cells; type: functional, cell-based, MDCK-II; conditions: dog, probe Calcein-AM
[20] = target: T1, ATP-dependent translocase ABCB1; experiment: TP_TRANSPORTER: increase in Calcein-AM intracellular accumulation (Calcein-AM: ? uM, Naltrexone: 100 uM) in MDR1-expressing MDCKII cells; type: functional, cell-based; conditions: dog, mdck-ii
[21] = target: T1, ATP-dependent translocase ABCB1; experiment: TP_TRANSPORTER: increase in Calcein-AM intracellular accumulation (Calcein-AM: ? uM, Nitrazepam: 100 uM) in MDR1-expressing MDCKII cells; type: functional, cell-based; conditions: dog, mdck-ii
[22] = target: T1, ATP-dependent translocase ABCB1; experiment: TP_TRANSPORTER: increase in Calcein-AM intracellular accumulation (Calcein-AM: ? uM, Nordazepam: 100 uM) in MDR1-expressing MDCKII cells; type: functional, cell-based; conditions: dog, mdck-ii
[23] = target: T1, ATP-dependent translocase ABCB1; experiment: TP_TRANSPORTER: increase in Calcein-AM intracellular accumulation (Calcein-AM: ? uM, Selegiline: 100 uM) in MDR1-expressing MDCKII cells; type: functional, cell-based; conditions: dog, mdck-ii
[24] = target: T1, ATP-dependent translocase ABCB1; experiment: TP_TRANSPORTER: increase in Calcein-AM intracellular accumulation (Calcein-AM: ? uM, Zimeldine: 100 uM) in MDR1-expressing MDCKII cells; type: functional, cell-based; conditions: dog, mdck-ii

CNS(=O)(=O)Cc1ccc2[nH]cc(CCN(C)C)c2c1
Activity [1]: is not an inhibitor [-] | Activity [2]: is not a substrate [-]

CN(C)CCC=C1c2ccccc2CCc2ccccc21 [AMITRIPTYLINE]
inhibition at 100 µM [3]: 25.5% | Activity [2]: is not a substrate [-]

OC(CCN1CCCCC1)(c1ccccc1)C1CC2C=CC1C2 (stereo not given) [BIPERIDEN]
Activity [4]: is not an inhibitor [-] | Activity [2]: is not a substrate [-]

CC(C)C[C@H]1C(=O)N2CCC[C@H]2[C@]2(O)O[C@](NC(=O)[C@@H]3C=C4c5cccc6[nH]c(Br)c(c56)C[C@H]4N(C)C3)(C(C)C)C(=O)N12 [BROMOCRIPTINE]
Activity [2]: is not a substrate [-]

O=C1CC2(CCCC2)CC(=O)N1CCCCN1CCN(c2ncccn2)CC1 [BUSPIRONE]
inhibition at 100 µM [5]: 24.1% | Activity [2]: is not a substrate [-]

NC(=O)N1c2ccccc2C=Cc2ccccc21 [CARBAMAZEPINE]
Activity [6]: is not an inhibitor [-] | Activity [2]: is not a substrate [-]

CN(C)CC/C=C1/c2ccccc2Sc2ccc(Cl)cc21 [CHLORPROTHIXENE]
inhibition at 100 µM [7]: 57.5% | Activity [2]: is not a substrate [-]

CN(C)CCCN1c2ccccc2CCc2ccc(Cl)cc21 [CLOMIPRAMINE]
inhibition at 100 µM [8]: 48.2% | Activity [2]: is not a substrate [-]

CNCCCN1c2ccccc2CCc2ccccc21 [DESIPRAMINE]
inhibition at 100 µM [9]: 12.8% | Activity [2]: is not a substrate [-]

CN(C)CCC=C1c2ccccc2COc2ccccc21 [DOXEPIN]
inhibition at 100 µM [10]: 15.3% | Activity [2]: is not a substrate [-]

CCOC(=O)c1ncn2c1CN(C)C(=O)c1cc(F)ccc1-2 [FLUMAZENIL]
Activity [11]: is not an inhibitor [-] | Activity [2]: is not a substrate [-]

CCN(CC)CCN1C(=O)CN=C(c2ccccc2F)c2cc(Cl)ccc21 [FLURAZEPAM]
inhibition at 100 µM [12]: 22.6% | Activity [2]: is not a substrate [-]

COCCCC/C(=N\OCCN)c1ccc(C(F)(F)F)cc1 [FLUVOXAMINE]
inhibition at 100 µM [13]: 20.8% | Activity [2]: is not a substrate [-]

O=C(CCCN1CCC(O)(c2ccc(Cl)cc2)CC1)c1ccc(F)cc1 [HALOPERIDOL]
inhibition at 100 µM [14]: 37.2% | Activity [2]: is not a substrate [-]

CN(C)CCCN1c2ccccc2CCc2ccccc21 [IMIPRAMINE]
Activity [15]: is not an inhibitor [-] | Activity [2]: is not a substrate [-]

CNC1(c2ccccc2Cl)CCCCC1=O (stereo not given) [KETAMINE]
Activity [16]: is not an inhibitor [-] | Activity [2]: is not a substrate [-]

CNCCCC12CCC(c3ccccc31)c1ccccc12 [MAPROTILINE]
inhibition at 100 µM [17]: 36.7% | Activity [2]: is not a substrate [-]

CCCC(C)(COC(N)=O)COC(N)=O [MEPROBAMATE]
Activity [18]: is not an inhibitor [-] | Activity [2]: is not a substrate [-]

CN1C[C@H](CNC(=O)OCc2ccccc2)C[C@@H]2c3cccc4c3c(cn4C)C[C@H]21 [METERGOLINE]
inhibition at 100 µM [19]: 84.4% | Activity [2]: is not a substrate [-]

Cc1ncc2n1-c1ccc(Cl)cc1C(c1ccccc1F)=NC2 [MIDAZOLAM]
Activity [2]: is not a substrate [-]

C=CCN1CC[C@]23c4c5ccc(O)c4O[C@H]2C(=O)CC[C@@]3(O)[C@H]1C5 [NALOXONE]
Activity [2]: is not a substrate [-]

O=C1CC[C@@]2(O)[C@H]3Cc4ccc(O)c5c4[C@@]2(CCN3CC2CC2)[C@H]1O5 [NALTREXONE]
Activity [20]: is not an inhibitor [-] | Activity [2]: is not a substrate [-]

O=C1CN=C(c2ccccc2)c2cc([N+](=O)[O-])ccc2N1 [NITRAZEPAM]
Activity [21]: is not an inhibitor [-] | Activity [2]: is not a substrate [-]

O=C1CN=C(c2ccccc2)c2cc(Cl)ccc2N1 [NORDAZEPAM]
Activity [22]: is not an inhibitor [-] | Activity [2]: is not a substrate [-]

C#CCN(C)[C@H](C)Cc1ccccc1 [SELEGILINE]
Activity [23]: is not an inhibitor [-] | Activity [2]: is not a substrate [-]

Nc1c2c(nc3ccccc13)CCCC2 [TACRINE]
Activity [2]: is not a substrate [-]

CN(C)C/C=C(/c1ccc(Br)cc1)c1cccnc1 [ZIMELDINE]
Activity [24]: is not an inhibitor [-] | Activity [2]: is not a substrate [-]
